Experimental data reported in article PMC9520775, “Everolimus pharmacokinetics and exposure-response relationship in Japanese patients with advanced breast cancer” (Frontiers in Pharmacology, 2022).

Tested on: patients with advanced or metastatic breast cancer
Test: Adverse events (CTCAE Ver. 4.0), dose-limiting toxicities and dose reductions under everolimus
Assay type: in vivo, human
Text: This was a prospective, observational PK study. Patients with advanced or metastatic breast cancer who received everolimus between November 2015 and November 2018 at Kobe City Medical Center General Hospital were enrolled in this study. The main inclusion criteria included the following: age ≥20 years; Eastern Cooperative Oncology Group (ECOG) performance status (PS): 0 or 1; and adequate bone marrow, liver, and renal function. The main exclusion criteria were interstitial pneumonia or pulmonary fibrosis, HBsAg positive, and psychiatric or psychological symptoms that made it difficult to participate in the study. Every participant provided written informed consent. This study was conducted in accordance with the Declaration of Helsinki and approved by the Institutional Review Board, under Approval Number zn151103.
Based on the physician’s decision, the patients were prescribed a starting dose of either 5 or 10 mg everolimus once daily. The everolimus dose was reduced when a patient experienced adverse events higher than grade 2. The first reduced dose was 5 mg once daily, followed by the second reduced dose of 2.5 mg once daily or 5 mg every alternate day. In addition, everolimus doses could be increased if adverse events improved to grade 1 or less, or deemed inefficacious. The adverse events were evaluated weekly for the first month and then every 1–4 weeks, according to the Common Terminology Criteria for Adverse Events Ver. 4.0.
Statistical differences in everolimus trough concentrations, doses and body weights between patient cohorts were assessed using the Mann–Whitney test. Progression-free survival (PFS) was assessed using the Kaplan-Meier method and the log-rank test. All statistical analyses were performed using GraphPad Prism version 7.03 (San Diego, CA). p < 0.05 was considered statistically significant.

[1] = Initial dose: 5 mg/day (n = 6), Grade 3
[2] = Initial dose: 5 mg/day (n = 6), Grade 4
[3] = Initial dose: 5 mg/day (n = 6), Grade All
[4] = Initial dose: 10 mg/day (n = 12), Grade 1
[5] = Initial dose: 10 mg/day (n = 12), Grade 2
[6] = Initial dose: 10 mg/day (n = 12), Grade 3
[7] = Initial dose: 10 mg/day (n = 12), Grade 4
[8] = Initial dose: 10 mg/day (n = 12), Grade All

CO[C@H]1C[C@@H]2CC[C@@H](C)[C@@](O)(O2)C(=O)C(=O)N2CCCC[C@H]2C(=O)O[C@H]([C@H](C)C[C@@H]2CC[C@@H](OCCO)[C@H](OC)C2)CC(=O)[C@H](C)/C=C(\C)[C@@H](O)[C@@H](OC)C(=O)[C@H](C)C[C@H](C)/C=C/C=C/C=C/1C [everolimus]
Adverse event, n: Diarrhea [1]: 0
Adverse event, n: Dysgeusia [1]: 0
Adverse event, n: Epistaxis [1]: 0
Adverse event, n: High cholesterol [1]: 0
Adverse event, n: Hyperglycemia [1]: 0
Adverse event, n: Hypertriglyceridemia [1]: 0
Adverse event, n: Hypokalemia [1]: 1
Adverse event, n: Interstitial lung disease [1]: 0
Adverse event, n: Malaise [1]: 0
Adverse event, n: Mucositis oral [1]: 0
Adverse event, n: Neutrophil count decreased [1]: 0
Adverse event, n: Platelet decrease [1]: 0
Adverse event, n: Rash [1]: 0
Adverse event, n: Diarrhea [2]: 0
Adverse event, n: Dysgeusia [2]: 0
Adverse event, n: Epistaxis [2]: 0
Adverse event, n: High cholesterol [2]: 0
Adverse event, n: Hyperglycemia [2]: 0
Adverse event, n: Hypertriglyceridemia [2]: 0
Adverse event, n: Hypokalemia [2]: 0
Adverse event, n: Interstitial lung disease [2]: 0
Adverse event, n: Malaise [2]: 0
Adverse event, n: Mucositis oral [2]: 0
Adverse event, n: Neutrophil count decreased [2]: 0
Adverse event, n: Platelet decrease [2]: 0
Adverse event, n: Rash [2]: 0
Adverse event, n: Diarrhea [3]: 1
Adverse event, n: Dysgeusia [3]: 2
Adverse event, n: Epistaxis [3]: 2
Adverse event, n: High cholesterol [3]: 4
Adverse event, n: Hyperglycemia [3]: 2
Adverse event, n: Hypertriglyceridemia [3]: 3
Adverse event, n: Hypokalemia [3]: 3
Adverse event, n: Interstitial lung disease [3]: 1
Adverse event, n: Malaise [3]: 2
Adverse event, n: Mucositis oral [3]: 6
Adverse event, n: Neutrophil count decreased [3]: 0
Adverse event, n: Platelet decrease [3]: 2
Adverse event, n: Rash [3]: 4
Adverse event, n: Diarrhea [4]: 1
Adverse event, n: Dysgeusia [4]: 3
Adverse event, n: Epistaxis [4]: 4
Adverse event, n: High cholesterol [4]: 5
Adverse event, n: Hyperglycemia [4]: 2
Adverse event, n: Hypertriglyceridemia [4]: 6
Adverse event, n: Hypokalemia [4]: 4
Adverse event, n: Interstitial lung disease [4]: 3
Adverse event, n: Malaise [4]: 5
Adverse event, n: Mucositis oral [4]: 5
Adverse event, n: Neutrophil count decreased [4]: 2
Adverse event, n: Platelet decrease [4]: 7
Adverse event, n: Rash [4]: 8
Adverse event, n: Diarrhea [5]: 3
Adverse event, n: Dysgeusia [5]: 0
Adverse event, n: Epistaxis [5]: 0
Adverse event, n: High cholesterol [5]: 2
Adverse event, n: Hyperglycemia [5]: 1
Adverse event, n: Hypertriglyceridemia [5]: 3
Adverse event, n: Hypokalemia [5]: 1
Adverse event, n: Interstitial lung disease [5]: 1
Adverse event, n: Malaise [5]: 0
Adverse event, n: Mucositis oral [5]: 6
Adverse event, n: Neutrophil count decreased [5]: 3
Adverse event, n: Platelet decrease [5]: 0
Adverse event, n: Rash [5]: 2
Adverse event, n: Diarrhea [6]: 0
Adverse event, n: Dysgeusia [6]: 0
Adverse event, n: Epistaxis [6]: 0
Adverse event, n: High cholesterol [6]: 0
Adverse event, n: Hyperglycemia [6]: 0
Adverse event, n: Hypertriglyceridemia [6]: 0
Adverse event, n: Hypokalemia [6]: 0
Adverse event, n: Interstitial lung disease [6]: 0
Adverse event, n: Malaise [6]: 0
Adverse event, n: Mucositis oral [6]: 0
Adverse event, n: Neutrophil count decreased [6]: 1
Adverse event, n: Platelet decrease [6]: 0
Adverse event, n: Rash [6]: 0
Adverse event, n: Diarrhea [7]: 0
Adverse event, n: Dysgeusia [7]: 0
Adverse event, n: Epistaxis [7]: 0
Adverse event, n: High cholesterol [7]: 0
Adverse event, n: Hyperglycemia [7]: 0
Adverse event, n: Hypertriglyceridemia [7]: 0
Adverse event, n: Hypokalemia [7]: 1
Adverse event, n: Interstitial lung disease [7]: 0
Adverse event, n: Malaise [7]: 0
Adverse event, n: Mucositis oral [7]: 0
Adverse event, n: Neutrophil count decreased [7]: 0
Adverse event, n: Platelet decrease [7]: 0
Adverse event, n: Rash [7]: 0
Adverse event, n: Diarrhea [8]: 4
Adverse event, n: Dysgeusia [8]: 3
Adverse event, n: Epistaxis [8]: 4
Adverse event, n: High cholesterol [8]: 7
Adverse event, n: Hyperglycemia [8]: 3
Adverse event, n: Hypertriglyceridemia [8]: 9
Adverse event, n: Hypokalemia [8]: 6
Adverse event, n: Interstitial lung disease [8]: 4
Adverse event, n: Malaise [8]: 5
Adverse event, n: Mucositis oral [8]: 11
Adverse event, n: Neutrophil count decreased [8]: 6
Adverse event, n: Platelet decrease [8]: 7
Adverse event, n: Rash [8]: 10
stomatitis, incidence, all grade (all patients, n = 18): 94%
proportion of all patients who required a second dose reduction (from the starting dose of 10 mg (7/18)): 39%
number of patients with dose-limiting toxicities (DLTs) (of 18 patients, during the 10 months of the study period): 13
proportion of patients who required dose reduction owing to adverse drug reactions (starting dose of 5 mg (5/6)): 83%
DLT while being treated with clarithromycin (three patients, clarithromycin 200 mg twice daily for 7 days (CYP3A4 inhibitor) during everolimus treatment): no DLT
